Measured values from ChEMBL document CHEMBL5236646, “Design, synthesis, and biological evaluation of BRD4 degraders” (Bioorg Med Chem, 2023).
Active and inactive are the calls of the source. No cut-off for these calls is given here.

Assays:
[1] = biological target: T1, Protein cereblon/Bromodomain-containing protein 4 (Homo sapiens) (UniProt O60885+Q96SW2); test: Protac activity at CRBN/BRD4 in human MM1.S cells assessed as downregulation of MYC protein expression at 300 nM measured after 3 hrs by Western blot analysis; format: cell-based
T1 sequence (Q96SW2 whole entry, looked up, other chains not shown): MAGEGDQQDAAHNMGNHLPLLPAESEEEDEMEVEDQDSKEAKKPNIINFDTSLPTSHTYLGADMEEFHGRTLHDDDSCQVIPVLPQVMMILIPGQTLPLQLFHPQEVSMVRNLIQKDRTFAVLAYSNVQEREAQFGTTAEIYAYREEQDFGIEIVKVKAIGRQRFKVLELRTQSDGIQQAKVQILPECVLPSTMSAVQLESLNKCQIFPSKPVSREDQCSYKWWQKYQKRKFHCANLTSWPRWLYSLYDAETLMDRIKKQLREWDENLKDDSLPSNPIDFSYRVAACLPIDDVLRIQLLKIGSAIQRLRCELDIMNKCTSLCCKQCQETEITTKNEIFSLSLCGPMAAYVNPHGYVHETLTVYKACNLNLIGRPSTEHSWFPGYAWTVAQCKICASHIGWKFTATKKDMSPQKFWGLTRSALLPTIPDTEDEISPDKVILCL

[2] = biological target: T1, Protein cereblon/Bromodomain-containing protein 4 (Homo sapiens); test: Protac activity at CRBN/BRD4 in human MM1.S cells assessed as induction of BRD4 protein degradation by measuring residual activity at 300 nM measured after 3 hrs by Western blot analysis (reference value: 317%); format: cell-based
[3] = biological target: T1, Protein cereblon/Bromodomain-containing protein 4 (Homo sapiens); test: Protac activity at CRBN/BRD4 in human MM1.S cells assessed as induction of BRD4 protein degradation by measuring residual activity at 0.09 uM incubated for 3 hrs by Western blot analysis relative to control; format: cell-based
[4] = system: MRC5; test: Inhibition of TGF-beta induced activation of human MRC5 cells assessed as downregulation of COL-1 protein expression at 0.1 to 10 uM by Western blot analysis; format: functional, cell-based; details: dose 0.1-10 µM
[5] = biological target: T1, Protein cereblon/Bromodomain-containing protein 4 (Homo sapiens); test: Protac activity at CRBN/BRD4 in human MM1.S cells assessed as induction of BRD4 protein degradation by measuring residual activity at 30 nM measured after 6 hrs by Western blot analysis (reference value: 100%); format: cell-based
[6] = biological target: T1, Protein cereblon/Bromodomain-containing protein 4 (Homo sapiens); test: Protac activity at CRBN/BRD4 in human MM1.S cells assessed as downregulation of MYC protein expression at […] incubated for 3 hrs by Western blot analysis; format: cell-based
[7] = biological target: T1, Protein cereblon/Bromodomain-containing protein 4 (Homo sapiens); test: Protac activity at CRBN/BRD4 in human MV4-11 cells assessed as induction of BRD4 protein degradation by measuring residual activity at 0.009 uM incubated for 3 hrs by Western blot analysis relative to control; format: cell-based
[8] = biological target: T1, Protein cereblon/Bromodomain-containing protein 4 (Homo sapiens); test: Protac activity at CRBN/BRD4 in human MV4-11 cells assessed as induction of BRD4 protein degradation by measuring residual activity at 30 nM measured after 1 hr by Western blot analysis (reference value: 100%); format: cell-based
[9] = biological target: T1, Protein cereblon/Bromodomain-containing protein 4 (Homo sapiens); test: Protac activity at CRBN/BRD4 in human MV4-11 cells assessed as induction of BRD4 protein degradation by measuring residual activity at 0.001 uM incubated for 3 hrs by Western blot analysis relative to control; format: cell-based
[10] = system: MV4-11; test: Antiproliferative activity against human […] cells assessed as inhibition of cell growth incubated for 72 hrs MTS assay; format: functional, cell-based; details: MV4-11, 72 h
[11] = Inhibition of TGF-beta induced activation of human MRC5 cells assessed as residual BRD4 protein level at 0.1 uM by Western blot analysis (reference value: 96%); format: functional

Activity [1]: Active
Activity [2]: 66%
Activity [3]: 70%
Activity [5]: 42%
Activity [6]: inactive
Activity [7]: 62%
Activity [8]: 62%
Activity [9]: 100%
IC50 [10]: 3 nM
SMILES: Cc1sc2c(c1C)C(c1ccc(Cl)cc1)=N[C@@H](CC(=O)NCCCCC(=O)NCCNc1cccc3c1C(=O)N(C1CCC(=O)NC1=O)C3=O)c1nnc(C)n1-2 (stereo partly specified)
inhibition [4]: Active
Activity [11]: 31%
